Data reported in the NIST ThermoML archive (doi:10.1021/je900194v).

Test: xn = mol fraction of the nth substance listed
Conditions: 101 kPa, Liquid; for viscosity: Capillary tube (Ostwald / Ubbelohde) method; for mass density: Vibrating tube method

Cc1cccc(C)c1 [1,3-dimethylbenzene] + COC(=O)CCCCl
x2 = 0
Conditions | mass density [kg/m3] | viscosity [mPa·s]
298.15 K | 859.83 | 0.587
308.15 K | 851.19 | 0.524
318.15 K | 842.49 | 0.471

COC(=O)CCCCl [methyl 4-chlorobutanoate] + c1ccccc1
Conditions | mass density, 298.15 K [kg/m3] | mass density, 308.15 K [kg/m3] | mass density, 318.15 K [kg/m3] | viscosity, 298.15 K [mPa·s] | viscosity, 308.15 K [mPa·s] | viscosity, 318.15 K [mPa·s]
x1 = 0.1 | 905.57 | 894.74 | 883.87 | 0.669 | 0.579 | 0.507
x1 = 0.2001 | 935.29 | 924.42 | 913.49 | 0.731 | 0.634 | 0.553
x1 = 0.3 | 962.99 | 952.12 | 941.13 | 0.799 | 0.69 | 0.601
x1 = 0.4001 | 989.08 | 978.2 | 967.18 | 0.875 | 0.754 | 0.661
x1 = 0.5 | 1013.66 | 1002.77 | 991.75 | 0.96 | 0.828 | 0.719
x1 = 0.5999 | 1036.89 | 1026.01 | 1014.99 | 1.054 | 0.907 | 0.785
x1 = 0.7 | 1058.82 | 1047.97 | 1036.94 | 1.157 | 0.99 | 0.853
x1 = 0.8 | 1079.42 | 1068.49 | 1057.55 | 1.271 | 1.08 | 0.927
x1 = 0.9 | 1098.6 | 1087.62 | 1076.65 | 1.391 | 1.18 | 1.007
x1 = 1 | 1116.24 | 1105.22 | 1094.13 | 1.519 | 1.279 | 1.089

c1ccccc1 [benzene] + COC(=O)CCCCl
x2 = 0
Conditions | mass density [kg/m3] | viscosity [mPa·s]
298.15 K | 873.61 | 0.603
308.15 K | 862.28 | 0.533
318.15 K | 852.08 | 0.466
